In patent publication US10392422B2, “Macrocyclic broad spectrum antibiotics” (priority 2014, dated 2019):
Values after ≈ are worked out from the molar mass of the structure shown. Like-named read-outs stand apart in the source and are kept apart here.

Experiments:
[1] = tested on: Methicillin Resistant Staphylococcus aureus strain USA 300 (NRS384); assay: MIC, broth micro-dilution technique (CLSI); type: cell-based; details: for MIC: Staphylococcus aureus, 22 h, read-out: MIC (μg/mL) S. aureus
Procedure: (§1) In vitro antimicrobial activity of each compound was determined by measuring minimal inhibitor concentrations (MICs) using the broth micro-dilution technique as approved by the Clinical and Laboratory Standards Institute (CLSI) (Methods for Dilution Antimicrobial Susceptibility Tests for Bacteria that Grow Aerobically; Approved Standard—Eighth Edition. CLSI document M07-A8. Wayne, Pa.: Clinical and Laboratory Standards; 2009). Antibacterial activity was measured against three strains of bacteria: a Methicillin Resistant Staphylococcus aureus strain USA 300 (NRS384); a MRSA COL (NRS100), another Methicillin Resistant Staphylococcus aureus strain; and a strain of Escherichia coli MC4100 harboring the IMP4213, which results in increased outer-membrane permeability (B Martin and Silhavy T. Imp/OstA is required for cell envelope biogenesis in Escherichia coli. (2002) Molecular Microbiology, 45(5), 1289-1302). Cells were inoculated onto plates of Trypyticase Soy Agar or Luria Agar respectively and grown at 35° C. for 20 hours. Inocula suspensions were prepared by scraping cells into 1 ml of testing media (cation adjusted Mueller Hinton Broth supplemented with 0.002% v/v Tween-80) and diluting to a final OD600 nm of 0.01.
(§2) Test compounds were prepared in DMSO at a concentration of 10 mg/ml. These compound stocks were diluted into testing media at a concentration of 64 μg/ml and serial 2-fold dilutions were made in the same media, in 96-well U bottom microtiter dishes, for a total of 10 compound concentrations (Table 1). In modified protocols (Table 2), compound stocks were diluted into testing media at a concentration of 4 μg/mL and serial 2-fold dilutions were made in the same media, in 96-well U bottom microtiter dishes, for a total of 10 compound concentrations. Inocula suspensions were added to the 2-fold serial dilutions of test compounds to a final density of OD OD600 nm of 0.0005 and incubated at 35° C. for 22 hours. […] The results from the protocol starting from a concentration of 64 µg/mL are listed in Table 1 and the results from the modified protocol are shown in Table 2.

[2] = tested on: Escherichia coli MC4100 harboring the IMP4213; assay: MIC, broth micro-dilution technique (CLSI); type: cell-based; details: 35° C., 22 hours; for MIC: Escherichia coli, 22 h, read-out: MIC (μg/mL) E. coli, Table 1 protocol: serial 2-fold dilutions starting from 64 μg/ml; for MIC (μg/mL) E. coli: Table 1 protocol: serial 2-fold dilutions starting from 64 μg/ml
Procedure: as §1, §2

[3] = Table 1 protocol: serial 2-fold dilutions starting from 64 μg/ml, 35° C., 22 hours

Row | Structure (SMILES) | MIC [1] | MIC [2] | MIC (μg/mL) S. aureus [1, 3] | MIC (μg/mL) E. coli [2] | MIC [1, 3]
1 | CCCCCCCC(=O)NCCC(=O)N[C@@H](CCCCN)C(=O)N(C)[C@@H]1C(=O)N[C@@H](C)C(=O)N[C@H](C(=O)N[C@@H](C)C(=O)C2CO2)Cc2ccc(O)c(c2)-c2cc1ccc2O (some centres unmarked) [Compound 101] | 64 µg/mL (≈ 76.6 µM) | > 64 µg/mL | – | – | –
2 | CCCCCCCC(=O)NCCC(=O)N[C@@H](CCCCN)C(=O)N(C)[C@@H]1C(=O)N[C@@H](C)C(=O)N[C@H](C(=O)N[C@@H](C)C(=O)C2CO2)Cc2ccc(O)c(c2)-c2cc1ccc2O (some centres unmarked) [Compound 102] | – | – | 64 µg/mL (≈ 76.6 µM) | >64 µg/mL | –
3 | CCCCCCCC(=O)N[C@@H](CCCCN)C(=O)N(C)[C@@H]1C(=O)N[C@@H](C)C(=O)N[C@H](C(=O)N[C@@H](C)C(=O)C2CO2)Cc2ccc(O)c(c2)-c2cc1ccc2O (some centres unmarked) [Compound 103] | – | 23 µg/mL (≈ 30.1 µM) | – | – | 45 µg/mL (≈ 58.8 µM)
4 | CC1OC1C(=O)[C@H](C)NC(=O)[C@@H]1Cc2ccc(O)c(c2)-c2cc(ccc2O)[C@H](N(C)C(=O)[C@H](CCCCN)NC(=O)c2ccc(-c3ccc(Cl)cc3)cc2)C(=O)N[C@@H](C)C(=O)N1 (some centres unmarked) [Compound 105] | – | 8 µg/mL (≈ 9.22 µM) | – | – | 4 µg/mL (≈ 4.61 µM)
5 | CC1OC1C(=O)[C@H](C)NC(=O)[C@@H]1Cc2ccc(O)c(c2)-c2cc(ccc2O)[C@H](N(C)C(=O)[C@H](CCCCN)NC(=O)c2ccc(-c3ccc(Cl)cc3)cc2)C(=O)N[C@@H](C)C(=O)N1 (some centres unmarked) [Compound 106] | – | – | 5.7 µg/mL (≈ 6.57 µM) | 11 µg/mL (≈ 12.7 µM) | –
6 | CCCCCCCC(=O)NCCC(=O)N[C@@H](CCCCN)C(=O)N(C)[C@@H]1C(=O)N[C@@H](C)C(=O)N[C@H](C(=O)N[C@@H](C)C(=O)CCl)Cc2ccc(O)c(c2)-c2cc1ccc2O [Compound 107] | 64 µg/mL (≈ 76 µM) | > 64 µg/mL | – | – | –
7 | C[C@H](NC(=O)[C@@H]1Cc2ccc(O)c(c2)-c2cc(ccc2O)[C@H](N(C)C(=O)[C@H](CCCCN)NC(=O)c2ccc(-c3ccc(Cl)cc3)cc2)C(=O)N[C@@H](C)C(=O)N1)C(=O)CCl [Compound 108] | 4 µg/mL (≈ 4.65 µM) | 8 µg/mL (≈ 9.3 µM) | – | – | –
8 | C[C@H](NC(=O)[C@@H]1Cc2ccc(O)c(c2)-c2cc(ccc2O)[C@H](N(C)C(=O)[C@H](CCCCN)NC(=O)c2ccc(-c3ccc(Cl)cc3)cc2)C(=O)N[C@@H](C)C(=O)N1)C(=O)COC(=O)c1ncccn1 [Compound 122] | 1.4 µg/mL (≈ 1.48 µM) | 32 µg/mL (≈ 33.8 µM) | – | – | –
9 | CC(=O)OCC(=O)[C@H](C)NC(=O)[C@@H]1Cc2ccc(O)c(c2)-c2cc(ccc2O)[C@H](N(C)C(=O)[C@H](CCCCN)NC(=O)c2ccc(-c3ccc(Cl)cc3)cc2)C(=O)N[C@@H](C)C(=O)N1 [Compound 123] | 3.2 µg/mL (≈ 3.62 µM) | 32 µg/mL (≈ 36.2 µM) | – | – | –
10 | COC(=O)[C@@H]1CCCN1CC(=O)[C@H](C)NC(=O)[C@@H]1Cc2ccc(O)c(c2)-c2cc(ccc2O)[C@H](N(C)C(=O)[C@H](CCCCN)NC(=O)c2ccc(-c3ccc(Cl)cc3)cc2)C(=O)N[C@@H](C)C(=O)N1 [Compound 126] | 32 µg/mL (≈ 33.6 µM) | > 64 µg/mL | – | – | –
11 | CC[C@H](NC(=O)[C@@H]1Cc2ccc(O)c(c2)-c2cc(ccc2O)[C@H](N(C)C(=O)[C@H](CCCCN)NC(=O)c2ccc(-c3ccc(Cl)cc3)cc2)C(=O)N[C@@H](C)C(=O)N1)C(C)=O [Compound 127] | > 64 µg/mL | 64 µg/mL (≈ 76.2 µM) | – | – | –
12 | C[C@H](NC(=O)[C@@H]1Cc2ccc(O)c(c2)-c2cc(ccc2O)[C@H](N(C)C(=O)[C@H](CCCCN)NC(=O)c2ccc(-c3ccc(Cl)cc3)cc2)C(=O)N[C@@H](C)C(=O)N1)C(=O)/C=C/c1c[nH]cn1 [Compound 131] | – | > 64 µg/mL | – | – | > 64 µg/mL
13 | C[C@H](NC(=O)[C@@H]1Cc2ccc(O)c(c2)-c2cc(ccc2O)[C@H](N(C)C(=O)[C@H](CCCCN)NC(=O)c2ccc(-c3ccc(Cl)cc3)cc2)C(=O)N[C@@H](C)C(=O)N1)C(=O)CS(N)(=O)=O [Compound 143] | 6.3 µg/mL (≈ 6.97 µM) | 51 µg/mL (≈ 56.4 µM) | – | – | –
14 | C[C@@H]1NC(=O)[C@@H](N(C)C(=O)[C@H](CCCCN)NC(=O)c2ccc(-c3ccc(Cl)cc3)cc2)c2ccc(O)c(c2)-c2cc(ccc2O)C[C@@H](C(=O)NCC(=O)CC2CCNC2=O)NC1=O (some centres unmarked) [Compound 150] | – | – | – | 8 µg/mL (≈ 8.94 µM) | > 64 µg/mL
15 | C[C@@H]1NC(=O)[C@@H](N(C)C(=O)[C@H](CCCCN)NC(=O)c2ccc(-c3ccc(Cl)cc3)cc2)c2ccc(O)c(c2)-c2cc(ccc2O)C[C@@H](C(=O)NCC(=O)CC2CCNC2=O)NC1=O (some centres unmarked) [Compound 151] | – | – | >64 µg/mL | 32 µg/mL (≈ 35.8 µM) | –
16 | CCCCCCCC(=O)NCCC(=O)N[C@@H](CCCCN)C(=O)N(C)[C@@H]1C(=O)N[C@@H](C)C(=O)N[C@H](CO)Cc2ccc(O)c(c2)-c2cc1ccc2O [Compound 153] | – | – | – | – | 130 µg/mL (≈ 179 µM)
17 | CC(O)[C@@H]1Cc2ccc(O)c(c2)-c2cc(ccc2O)[C@H](N(C)C(=O)[C@H](CCCCN)NC(=O)c2ccc(-c3ccc(Cl)cc3)cc2)C(=O)N[C@@H](C)C(=O)N1 (some centres unmarked) [Compound 154] | 64 µg/mL (≈ 84.6 µM) | 64 µg/mL (≈ 84.6 µM) | – | – | –
18 | C[C@@H]1NC(=O)[C@@H](N(C)C(=O)[C@H](CCCCN)NC(=O)c2ccc(-c3ccc(Cl)cc3)cc2)c2ccc(O)c(c2)-c2cc(ccc2O)C[C@@H](C(=O)N[C@@H](C)C(=O)N2CCCC2)NC1=O [Compound 156] | > 64 µg/mL | 51 µg/mL (≈ 57.9 µM) | – | – | –
19 | C[C@@H]1NC(=O)[C@@H](N(C)C(=O)[C@H](CCCCN)NC(=O)c2ccc(-c3ccc(Cl)cc3)cc2)c2ccc(O)c(c2)-c2cc(ccc2O)C[C@@H](C(=O)N[C@@H](C)C(=O)N2CCC[C@H]2CO)NC1=O [Compound 157] | > 64 µg/mL | 45 µg/mL (≈ 49.4 µM) | – | – | –
20 | C[C@@H]1NC(=O)[C@@H](N(C)C(=O)[C@H](CCCCN)NC(=O)c2ccc(-c3ccc(Cl)cc3)cc2)c2cc(Br)c(O)c(c2)-c2cc(cc(Br)c2O)C[C@@H](C(=O)O)NC1=O [Compound 164] | 32 µg/mL (≈ 35 µM) | 8 µg/mL (≈ 8.75 µM) | – | – | –
21 | C[C@@H]1NC(=O)[C@@H](N(C)C(=O)[C@H](CCCCN)NC(=O)c2ccc(-c3ccc(Cl)cc3)cc2)c2ccc(O)c(c2)-c2cc(cc(Br)c2O)C[C@@H](C(=O)O)NC1=O [Compound 165] | 45 µg/mL (≈ 53.9 µM) | 11 µg/mL (≈ 13.2 µM) | – | – | –
22 | C[C@@H]1NC(=O)[C@@H](N(C)C(=O)[C@H](CCCCN)NC(=O)c2ccc(-c3ccc(Cl)cc3)cc2)c2ccc(O)c(c2)-c2cc(ccc2O)C[C@@H](C(=O)N[C@@H](C)C(=O)N2CC[C@H](O)[C@H]2C(N)=O)NC1=O [Compound 168] | – | 32 µg/mL (≈ 34.1 µM) | – | – | 5.7 µg/mL (≈ 6.07 µM)
23 | C[C@@H]1NC(=O)[C@@H](N(C)C(=O)[C@H](CCCCN)NC(=O)c2ccc(-c3ccc(Cl)cc3)cc2)c2ccc(O)c(c2)-c2cc(ccc2O)C[C@@H](C(=O)N[C@@H](C)C(=O)N2C[C@H](O)C[C@H]2C(N)=O)NC1=O [Compound 169] | – | 64 µg/mL (≈ 68.1 µM) | – | – | 45 µg/mL (≈ 47.9 µM)
24 | C[C@@H]1NC(=O)[C@@H](N(C)C(=O)[C@H](CCCCN)NC(=O)c2ccc(-c3ccc(Cl)cc3)cc2)c2ccc(O)c(c2)-c2cc(ccc2O)C[C@@H](C(=O)N[C@@H](C)C(=O)N2C[C@H]3C[C@H]3[C@H]2C(N)=O)NC1=O [Compound 170] | – | 64 µg/mL (≈ 68.4 µM) | – | – | 45 µg/mL (≈ 48.1 µM)
25 | C[C@@H]1NC(=O)[C@@H](N(C)C(=O)[C@H](CCCCN)NC(=O)c2ccc(-c3ccc(Cl)cc3)cc2)c2ccc(O)c(c2)-c2cc(ccc2O)C[C@@H](C(=O)N[C@@H](C)C(=O)N2CC[C@H]2C(N)=O)NC1=O [Compound 171] | – | 64 µg/mL (≈ 70.4 µM) | – | – | 20 µg/mL (≈ 22 µM)
26 | C[C@@H]1NC(=O)[C@@H](N(C)C(=O)[C@H](CCCCN)NC(=O)c2ccc(-c3ccc(Cl)cc3)cc2)c2ccc(O)c(c2)-c2cc(ccc2O)C[C@@H](C(=O)N[C@@H](C)C(=O)N2C[C@@H](F)C[C@H]2C(N)=O)NC1=O [Compound 172] | – | 64 µg/mL (≈ 68 µM) | – | – | 16 µg/mL (≈ 17 µM)
27 | C[C@@H]1NC(=O)[C@@H](N(C)C(=O)[C@H](CCCCN)NC(=O)c2ccc(-c3ccc(Cl)cc3)cc2)c2ccc(O)c(c2)-c2cc(ccc2O)C[C@@H](C(=O)N[C@@H](C)C(=O)N2CCCC[C@H]2C(N)=O)NC1=O [Compound 173] | – | 32 µg/mL (≈ 34.1 µM) | – | – | 64 µg/mL (≈ 68.3 µM)
28 | CCCCc1ccc(-c2ccc(C(=O)NC[C@@H](C)C(=O)N[C@@H](CCCCN)C(=O)N(C)[C@@H]3C(=O)N[C@@H](C)C(=O)N[C@H](C(=O)N[C@@H](C)C(=O)N4CCC[C@H]4C(N)=O)Cc4ccc(O)c(c4)-c4cc3ccc4OC(=O)OCC(C)C)cc2)cc1 [Compound 184] | 2 µg/mL (≈ 1.77 µM) | – | – | – | –
29 | CCCCc1ccc(-c2ccc(C(=O)N[C@@H](CN)C(=O)N(C)[C@@H]3C(=O)N[C@@H](C)C(=O)N[C@H](C(=O)O)Cc4ccc(OCCN)c(c4)-c4cc3ccc4OCCN)cc2)cc1 [Compound 292] | – | 0.063 µg/mL (≈ 0.0766 µM) | – | – | –
30 | CCCCCCCCCCCCCC(=O)N[C@@H](CN)C(=O)N(C)[C@@H]1C(=O)N[C@@H](C)C(=O)N[C@H](C(=O)N[C@@H](C)B2O[C@@H]3C[C@@H]4C[C@@H](C4(C)C)[C@]3(C)O2)Cc2ccc(OCCN)c(c2)-c2cc1ccc2OCCN [Compound 318] | – | 0.063 µg/mL (≈ 0.0629 µM) | – | – | –
